Experimental data published in patent US11897898B2, “Pyridine macrocycle compounds as ASK1 inhibiting agents” (BIOGEN MA INC., priority 2018, dated 2024).

Experiments:
[1] = In vivo brain penetration (rat Kpuu study); conditions: brain and plasma (unbound), IV infusion in the carotid artery for four hours, 1 mg/kg, steady state, Kpuu=Cu,b/Cu,p
Method: To evaluate the CNS penetration of the compounds described herein, several compounds were selected for in vivo rat Kpuu studies. In these experiments the compounds are administered via an IV infusion (using N,N-dimethylacetamide:ethanol:1,2-propylene glycol:water in a 1:1:3:5 ratio as the vehicle) in the carotid artery for a period of four hours (1 mg/kg, 0.1 mg/mL) to reach steady state. After this time the plasma and brain concentration levels are quantified, and the values are adjusted by the measured protein binding in plasma and brain homogenate to calculate the Kpuu (see Di, L.; Kerns, E. H. Blood-Brain Barrier in Drug Discovery (Wiley)) according to the equation below. Kpuu=Cu,b/Cu,p • Wherein: • Cu,b=Unbound concentration in brain (C×fu,b). (C=concentration at steady state; fu,b=fraction unbound in brain) • And in which: Cu,p=Unbound concentration in plasma (C×fu,p). (C=concentration at steady state; fu,p=fraction unbound in plasma)
Plasma and brain protein binding values were generated via the Rapid Equilibrium Dialysis method. The compound of interest was incubated in K2EDTA plasma and brain homogenate (homogenized 1:7 (w:v) in 1×PBS) purchased from BioIVT (Westbury, N.Y.), opposite a buffered compartment of 100 mM Potassium phosphate/150 mM Sodium chloride, pH 7.4, at 1 μM for 4 hr and 6 hr respectively. At the conclusion of incubation samples were taken from both matrix and buffered compartments, matrix-matched using blank buffer and matrix, extracted with acetonitrile, diluted with water, and analyzed utilizing an Agilent RapidFire 365 high-throughput LC coupled with MS/MS detection via an AB Sciex 5500. Free fractions (fu) were then calculated by comparing internal standard/analyte peak-area ratios of matrix and buffered compartments. Cross-species brain protein binding was considered to be equivalent for the purposes of calculating free fraction (see Di, L., et al., (2011a) Species Independence in Brain Tissue Binding Using Brain Homogenates, Drug Metab Dispos 39:1270-1277).
Total drug concentration in plasma and brain tissue was measured via well-established bioanalytical extraction (protein precipitation) and detection methods (LC-MS/MS). Brain tissues were homogenized 1:4 (w:v) with 1×PBS in MP Biomedicals Lysing Matrix D tubes via an MP Biomedicals FastPrep-24™ homogenizer and were then extracted alongside plasma samples by matrix-matching with blank K2EDTA plasma (purchased from BioIVT), followed by protein crash/extraction with acetonitrile, supernatant dry down under nitrogen, and reconstitution with an acidified aqueous/organic mixture before being measured against a calibration curve of the compound of interest prepared in plasma, matrix-matched with blank brain homogenate (generated with brains purchased from BioIVT), and similarly extracted. Reconstituted extracts were then analyzed via LC-MS/MS (AB Sciex 5500) utilizing a binary HPLC setup (Shimadzu LC-20ADvp) and reverse-phase chromatography gradient (ACE 3 C18-AR). Peak area ratios and a 1/x^2 regression fit were used to generate sample concentration values that, combined with plasma and brain protein binding values, were used to generate free drug concentration values and partitioning coefficient (Kpuu).

[2] = biological target: T1, ASK1 T838 auto phosphorylation (Homo sapiens, UniProt Q99683); experiment: ASK1 (AUTO PHOS T838) assay in HEK-293T cells, MSD format; assay type: cell-based; conditions: HEK-293T cells transfected with ASK1-V5, 1 hr compound incubation; class symbols
T1 construct: ASK1-V5 tagged full length plasmid; expressed in transfected cells; host or cells: HEK-293T
T1 sequence (Q99683 1-1374): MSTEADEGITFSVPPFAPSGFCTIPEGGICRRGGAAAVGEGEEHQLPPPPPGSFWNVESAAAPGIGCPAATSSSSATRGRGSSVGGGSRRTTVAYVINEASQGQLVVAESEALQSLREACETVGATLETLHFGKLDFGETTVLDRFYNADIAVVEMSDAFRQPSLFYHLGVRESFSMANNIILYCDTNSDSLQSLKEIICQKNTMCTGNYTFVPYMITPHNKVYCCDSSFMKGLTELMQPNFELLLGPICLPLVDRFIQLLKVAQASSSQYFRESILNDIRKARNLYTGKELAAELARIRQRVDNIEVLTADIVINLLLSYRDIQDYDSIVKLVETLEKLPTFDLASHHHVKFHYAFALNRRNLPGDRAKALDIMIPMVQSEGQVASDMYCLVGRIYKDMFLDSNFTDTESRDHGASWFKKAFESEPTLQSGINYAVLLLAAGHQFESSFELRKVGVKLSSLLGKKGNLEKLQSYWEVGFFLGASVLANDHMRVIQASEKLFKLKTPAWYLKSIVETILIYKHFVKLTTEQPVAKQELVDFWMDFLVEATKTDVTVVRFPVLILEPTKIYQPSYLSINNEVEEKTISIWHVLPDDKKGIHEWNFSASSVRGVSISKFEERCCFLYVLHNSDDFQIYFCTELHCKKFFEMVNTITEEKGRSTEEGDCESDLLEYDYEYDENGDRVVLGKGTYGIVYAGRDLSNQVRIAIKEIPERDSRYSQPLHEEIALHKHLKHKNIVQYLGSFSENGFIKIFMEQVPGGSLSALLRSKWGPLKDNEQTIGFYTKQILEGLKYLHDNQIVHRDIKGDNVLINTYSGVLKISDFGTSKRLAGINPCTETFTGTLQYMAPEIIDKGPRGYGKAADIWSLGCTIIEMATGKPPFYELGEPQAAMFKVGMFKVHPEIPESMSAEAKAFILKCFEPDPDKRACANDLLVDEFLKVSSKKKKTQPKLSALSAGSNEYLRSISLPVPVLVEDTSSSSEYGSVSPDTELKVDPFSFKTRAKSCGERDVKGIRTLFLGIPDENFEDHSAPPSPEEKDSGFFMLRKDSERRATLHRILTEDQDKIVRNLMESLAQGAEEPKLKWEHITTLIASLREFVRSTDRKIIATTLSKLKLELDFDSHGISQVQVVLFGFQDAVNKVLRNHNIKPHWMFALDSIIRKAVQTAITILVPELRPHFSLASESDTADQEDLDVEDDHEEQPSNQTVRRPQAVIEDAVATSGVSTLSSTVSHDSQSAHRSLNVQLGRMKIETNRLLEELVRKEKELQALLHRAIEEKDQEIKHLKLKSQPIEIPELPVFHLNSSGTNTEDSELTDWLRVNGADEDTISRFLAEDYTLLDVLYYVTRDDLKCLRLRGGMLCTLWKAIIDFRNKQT
Method: ASK1 T838 auto phosphorylation was measured in HEK-293T cells using MSD assay format. HEK 293T cells were seeded in 15 cm plates at a density of 18 million cells and 20 mL DMEM with 10% FBS, Pen/Strep media. The plates were incubated at 37° C. overnight. Media on plates was changed to OPTI-MEM, serum free media and cells were transfected with 9 μg of ASK1-V5 tagged full length plasmid using Lipofectamine 2000 (Invitrogen) and the plates were incubated at 37° C. overnight. Cells were trypsinized, counted on Nexcellometer and plated into 96 well tissue culture plates with 100,000 cells/well and 200 μL media. Cells were incubated for 4 hr at 37° C. then ASK1 compounds were added using a HP 300e. Compounds were tested at 20 μM with 3 fold, 10 point dilution points then incubated for 1 hr at 37° C. A lysis buffer (Cell Signaling) was prepared with protease and phosphatase inhibitor and maintained at 4° C. until use. Media from cells was discarded and 120 μL of cold lysis buffer was added to the cells, the plate was shaken 4° C. for 1 hr. Lysate was mixed using Apricot liquid handler; aspirating up and down 16 times at high speed using 50 μL volume. 50 μL of cell lysates were transferred to a pre-coated MSD plates containing mouse anti-V5 antibody (1:500 dilution) and washed 3× with MSD wash buffer (TBST) and blocked with a 3% BSA solution. Plates were then incubated on a plate shaker overnight at 4° C. Plates were washed 3× with MSD wash buffer and 50 μL of rabbit anti-pASK1 T838 antibody was added to the wells and incubated for 2 hr at room temperature on a plate shaker. Plates were then washed and 50 μL of goat anti-rabbit sulfa-tag (1:500 dilution) was added to wells, and incubated for 1 hr at room temperature on a plate shaker. Plates were washed 3× and 150 μL of 2×MSD Read buffer was added to wells. Plates were immediately read on a MSD Instrument Reader where chemoluminecense signal was measured. Data was analyzed using Graph Pad or Genedata, the data was normalized and plotted, % activity versus log of compound concentration. The IC50 values were obtained from a 4 parameter fit.

ASK1/MAP3K5 = biological target: T2, ASK1/MAP3K5 (Homo sapiens, UniProt Q99683); experiment: ASK1 enzyme assay (ASK1/MAP3K5 assay by Reaction Biology Corp., 33P-ATP filter-binding); assay type: biochemical; conditions: 20 μM myelin basic protein and 10 μM ATP; class symbols
T2 construct: purchased Reaction Biology Corp. (Malvern, Pa.)
T2 sequence (Q99683 1-1374): T1 sequence (Q99683 1-1374)
Method: The protein kinase inhibitory activity of the compounds described herein were tested using the ASK1/MAP3K5 assay by Reaction Biology Corp. (Malvern, Pa.). The assay procedure follows (and is also available on the Reaction Biology Corp. website). • Base Reaction Buffer: 20 mM Hepes (pH 7.5), 10 mM MgCl2, 1 mM EGTA, • 0.02% Brij35, 0.02 mg/mL BSA, 0.1 mM Na3VO4, 2 mM DTT, 1% DMSO; • Substrate: 20 μM of myelin basic protein (MBP) and 10 μM ATP; • Protein kinase: ASK1/MAP3K5. • Reaction Procedure: • 1. Prepare indicated substrate in freshly prepared Base Reaction Buffer. • 2. Deliver any required cofactors to the substrate solution. • 3. Deliver indicated kinase into the substrate solution and gently mix. • 4. Deliver compounds in DMSO into the kinase reaction mixture by Acoustic; technology (Echo550; nanoliter range), incubate for 20 minutes at room temperature. • 5. Deliver ^33P-ATP (specific activity 10 μCi/μL) into the reaction mixture to initiate the reaction. • 6. Incubate kinase reaction for 2 hours at room temperature. • 7. Reactions are spotted onto P81 ion exchange paper. • 8. Detect kinase activity by filter-binding method.

Q: Which Kp uu at 4 h [1] does the source give for `C[C@H]1CCCOc2ncc(N3CCN(C)CC3)cc2C(=O)Nc2cccc(n2)-c2nncn21` [Compound 10, (S)-10-Methyl-5^5-(4-methylpiperazin-1-yl)-1^4H-6-oxa-3-aza-2(2,6),5(3,2)-dipyridina-1(3,4)-triazolacyclodecaphan-4-one] here?
A: The Kp uu at 4 h was less than 0.1.

Q: And the IC50 [2]?
A: The IC50 was no more than 100 nM.

Q: Which Kp uu at 4 h [1] does the source give for `Cc1ccc(-c2cnc3c(c2)C(=O)Nc2cccc(n2)-c2nncn2[C@@H](C)CCCO3)cn1` [Compound 19, (S)-10-Methyl-5^5-(6-methylpyridin-3-yl)-1^4H-6-oxa-3-aza-2(2,6),5(3,2)-dipyridina-1(3,4)-triazolacyclodecaphan-4-one] here?
A: Its Kp uu at 4 h is less than 0.1.

Q: And the IC50 [2]?
A: Its IC50 is no more than 100 nM.

Q: For `C[C@H]1CCCOc2ncc(C3COC3)cc2C(=O)Nc2cccc(n2)-c2nncn21` [Compound 45, (S)-10-Methyl-5^5-(oxetan-3-yl)-1^4H-6-oxa-3-aza-2(2,6),5(3,2)-dipyridina-1(3,4)-triazolacyclodecaphan-4-one], which IC50 (ASK1/MAP3K5) is on record?
A: The IC50 was no more than 100 nM.

Q: What about the IC50 [2] of the same compound?
A: Its IC50 is no more than 100 nM.

Q: For `C[C@H]1CCCOc2ncc(C3CN(C(=O)OC(C)(C)C)C3)cc2C(=O)Nc2cccc(n2)-c2nncn21` [Compound 46, tert-Butyl (S)-3-(10-methyl-4-oxo-1^4H-6-oxa-3-aza-2(2,6),5(3,2)-dipyridina-1(3,4)-triazolacyclodecaphane-5^5-yl)azetidine-1-carboxylate], which IC50 (ASK1/MAP3K5) is on record?
A: Its IC50 is no more than 100 nM.

Q: And the IC50 [2]?
A: The IC50 was no more than 100 nM.

Q: With `C[C@H]1CCCOc2ncc(C3CN(C)C3)cc2C(=O)Nc2cccc(n2)-c2nncn21` [Compound 47, (S)-10-Methyl-5^5-(1-methylazetidin-3-yl)-1^4H-6-oxa-3-aza-2(2,6),5(3,2)-dipyridina-1(3,4)-triazolacyclodecaphan-4-one] as the compound, how does the IC50 (ASK1/MAP3K5) read?
A: Its IC50 is no more than 100 nM.

Q: What about the IC50 [2] of the same compound?
A: The IC50 was 100 to 1000 nM.
